Molecular target: human APJ receptor (Homo sapiens (Human), UniProt P35414)
Assay: biochemical
Type: biochemical
Conditions: read-out: Activity hAPJ SPA EC50 IP
Description: The human APJ receptor was cloned by polymerase chain reaction and the gene encoding the receptor was subcloned in pFLAG-CMV™-3 expression vector (Sigma, Saint Louis, Mo. USA) in-house at Amgen. A GTPγS binding assay was performed on membranes prepared from CHO cells stably expressing human APJ receptor. The optimum experimental conditions for the concentrations of GDP, MgCl2, and NaCl in the assay buffer were initially determined. The assay was performed in assay buffer [20 mM HEPES, pH 7.5, 5 mM MgCl2, and 0.1% (w/v) BSA with 200 mM NaCl, 3 μM GDP] and membranes expressing human APJ receptor/well along with WGA PS beads. The reaction was initiated by addition of 0.2 nM [^35S]GTPγS (Perkin Elmer Life and Analytical Sciences, Waltham USA) in the absence or presence of various ligands and incubated at RT for 90 min. […] All the results presented are means of several independent experiments and analyzed by non-linear regression methods using commercially available program Prism (GraphPad, San Diego, Calif.) to obtain EC50 detailed in Table 58.

human APJ receptor, sequence (P35414 whole entry): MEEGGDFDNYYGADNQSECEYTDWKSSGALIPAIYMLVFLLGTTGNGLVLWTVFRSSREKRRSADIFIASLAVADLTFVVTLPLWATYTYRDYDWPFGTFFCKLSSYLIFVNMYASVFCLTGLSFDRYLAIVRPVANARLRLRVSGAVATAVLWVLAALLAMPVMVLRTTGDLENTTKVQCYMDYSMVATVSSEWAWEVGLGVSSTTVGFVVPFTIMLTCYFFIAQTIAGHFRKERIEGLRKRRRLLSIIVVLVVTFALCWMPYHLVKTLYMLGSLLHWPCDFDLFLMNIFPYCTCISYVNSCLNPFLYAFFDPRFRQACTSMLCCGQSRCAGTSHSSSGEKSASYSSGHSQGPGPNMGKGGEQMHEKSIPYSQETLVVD

Compound	EC50 [nM]
COc1cccc(-c2nnc(NS(=O)(=O)[C@@H](C)[C@H](OC)c3ncc(C)cn3)n2-c2ccccc2OC)n1 (atropisomer, axis not shown; (P)) [Example 52.0, (1R,2S,P)-1-methoxy-N-(4-(2-methoxyphenyl)-5-(6-methoxy-2-pyridinyl)-4H-1,2,4-triazol-3-yl)-1-(5-methyl-2-pyrimidinyl)-2-propanesulfonamide and (1R,2S,M)-1-methoxy-N-(4-(2-methoxyphenyl)-5-(6-methoxy-2-pyridinyl)-4H-1,2,4-triazol-3-yl)-1-(5-methyl-2-pyrimidinyl)-2-propanesulfonamide]	4.2
COc1cccc(OC)c1-n1c(NS(=O)(=O)[C@@H](C)Cc2ncc(F)cn2)nnc1-c1cncc(C)c1 (single isomer, unassigned) [Example 209.0]	4.9
COc1cccc(-c2nnc(NS(C)(=O)=O)n2-c2c(OC)cccc2OC)n1 [Example 4.02, N-(4-(2,6-dimethoxyphenyl)-5-(6-methoxypyridin-2-yl)-4H-1,2,4-triazol-3-yl)methanesulfonamide]	220
COc1cccc(OC)c1-n1c(NS(=O)(=O)C[C@H](O)c2ncc(C)cn2)nnc1-c1cncc(C)c1 (single isomer, unassigned) [Example 729.0, (R)—N-(4-(2,6-dimethoxyphenyl)-5-(5-methylpyridin-3-yl)-4H-1,2,4-triazol-3-yl)-2-hydroxy-2-(5-methylpyrimidin-2-yl)ethanesulfonamide or (S)—N-(4-(2,6-dimethoxyphenyl)-5-(5-methylpyridin-3-yl)-4H-1,2,4-triazol-3-yl)-2-hydroxy-2-(5-methylpyrimidin-2-yl)ethanesulfonamide]	1.5
COc1cccc(OC)c1-n1c(NS(=O)(=O)[C@@H](C)[C@H](OC)C2CC(C)(C)C2)nnc1-c1cncc(C)c1 (single isomer, unassigned) [Example 725.0]	36
COc1cccc(OC)c1-n1c(NS(=O)(=O)[C@H](C)[C@@H](C)n2cc(C)cn2)nnc1-c1cncc(C)c1 (racemic) [Example 647.0]	1.7
COc1cccc(-n2c(NS(=O)(=O)[C@@H](C)[C@H](OC)c3ncc(C)cn3)nnc2-c2cccc(OC)n2)c1 [Example 64.0, (1R,2S)-1-methoxy-N-(4-(3-methoxyphenyl)-5-(6-methoxy-2-pyridinyl)-4H-1,2,4-triazol-3-yl)-1-(5-methyl-2-pyrimidinyl)-2-propanesulfonamide]	10
COc1cnc([C@@H](O)[C@H](C)S(=O)(=O)Nc2nnc(-c3cncc(C)c3)n2-c2c(OC)cccc2OC)cn1 (single isomer, unassigned) [Example 306.0]	20
COc1ccnc(OC)c1-n1c(NS(=O)(=O)[C@@H](C)[C@H](OC)c2ccc(Cl)cn2)nnc1-c1cccnc1 (single isomer, unassigned) [Example 712.0]	0.9
COc1cccc(OC)c1-n1c(NS(=O)(=O)[C@@H]2C[C@@H](OC)CN(c3ncc(F)cn3)C2)nnc1-c1cccnc1 (stereo in doubt) [Example 819.0, (3S,5S)-N-(4-(2,6-dimethoxyphenyl)-5-(3-pyridinyl)-4H-1,2,4-triazol-3-yl)-1-(5-fluoro-2-pyrimidinyl)-5-methoxy-3-piperidinesulfonamide, (3R,5R)-N-(4-(2,6-dimethoxyphenyl)-5-(3-pyridinyl)-4H-1,2,4-triazol-3-yl)-1-(5-fluoro-2-pyrimidinyl)-5-methoxy-3-piperidinesulfonamide]	33
COc1cccc(OC)c1-n1c(NS(=O)(=O)[C@@H](C)[C@H](OC)c2ncc(-c3cccnc3)cn2)nnc1-c1cncc(C)c1 [Example 752.0, (1R,2S)—N-(4-(2,6-dimethoxyphenyl)-5-(5-methylpyridin-3-yl)-4H-1,2,4-triazol-3-yl)-1-methoxy-1-(5-(pyridin-3-yl)pyrimidin-2-yl)propane-2-sulfonamide]	3.6
Cc1cncc(-c2nnc(NS(=O)(=O)[C@@H](C)[C@H](C)c3cnc(C)cn3)n2-c2c(F)cccc2F)c1 [Example 795.0, (2S,3R)-N-(4-(2,6-difluorophenyl)-5-(5-methyl-3-pyridinyl)-4H-1,2,4-triazol-3-yl)-3-(5-methyl-2-pyrazinyl)-2-butanesulfonamide]	30
COc1cccc(OC)c1-n1c(NS(=O)(=O)[C@H](C)[C@@H](OC)c2ccc(C#N)cn2)nnc1-c1cncc(C)c1 (single isomer, unassigned) [Example 555.0]	41
COc1ncnc(OC)c1-n1c(NS(=O)(=O)[C@@H](C)[C@H](OC)c2cnc(C)cn2)nnc1-c1ccccn1 [Example 779.0, (1R,2S)-N-(4-(4,6-dimethoxy-5-pyrimidinyl)-5-(2-pyridinyl)-4H-1,2,4-triazol-3-yl)-1-methoxy-1-(5-methyl-2-pyrazinyl)-2-propanesulfonamide]	17
COc1cnc([C@@H](C)[C@H](C)S(=O)(=O)Nc2nnc(-c3cccc(OC)n3)n2C2CCOCC2)cn1 [Example 844.0, (2S,3R)-3-(5-methoxy-2-pyrazinyl)-N-(5-(6-methoxy-2-pyridinyl)-4-(tetrahydro-2H-pyran-4-yl)-4H-1,2,4-triazol-3-yl)-2-butanesulfonamide]	86
COc1cccc(-c2nnc(NS(=O)(=O)[C@@H](C)[C@H](OC)c3ncc(C)cn3)n2-c2cc(C)ccc2OC)n1 (atropisomer, axis not shown; (P)) [Example 40.0, (1R,2S,P)-1-methoxy-N-(4-(2-methoxy-5-methylphenyl)-5-(6-methoxypyridin-2-yl)-4H-1,2,4-triazol-3-yl)-1-(5-methylpyrimidin-2-yl)propane-2-sulfonamide and (1R,2S,M)-1-methoxy-N-(4-(2-methoxy-5-methylphenyl)-5-(6-methoxypyridin-2-yl)-4H-1,2,4-triazol-3-yl)-1-(5-methylpyrimidin-2-yl)propane-2-sulfonamide]	4.7
CCc1cccc(-c2nnc(NS(=O)(=O)[C@@H](C)[C@H](C)c3ncc(C)cn3)n2-c2c(OC)cccc2OC)n1 [Example 176.0, (2S,3R)-N-(4-(2,6-dimethoxyphenyl)-5-(6-ethylpyridin-2-yl)-4H-1,2,4-triazol-3-yl)-3-(5-methylpyrimidin-2-yl)butane-2-sulfonamide]	0.15
COc1cccc(OC)c1-n1c(NS(=O)(=O)[C@H](C)[C@@H](OC[C@H](C)O)c2ncc(C)cn2)nnc1-c1cncc(C)c1 (single isomer, unassigned) [Example 401.0]	21
CCOc1cccc(-c2nnc(NS(=O)(=O)[C@@H](C)[C@H](C)c3ncc(F)cn3)n2-c2c(OC)cccc2OC)n1 [Example 161.0, (2S,3R)-N-(4-(2,6-dimethoxyphenyl)-5-(6-ethoxy-2-pyridinyl)-4H-1,2,4-triazol-3-yl)-3-(5-fluoro-2-pyrimidinyl)-2-butanesulfonamide]	0.062
COc1cccc(OC)c1-n1c(NS(=O)(=O)[C@@H](C)Cc2ncc(F)cn2)nnc1-c1cnccc1C (single isomer, unassigned) [Example 217.0]	180
COc1cccc(-c2nnc(NS(=O)(=O)[C@@H](C)[C@H](OC)c3ncc(C)cn3)n2-c2cccnc2)n1 [Example 33.0, (1R,2S)-1-methoxy-N-(5-(6-methoxypyridin-2-yl)-4-(pyridin-3-yl)-4H-1,2,4-triazol-3-yl)-1-(5-methylpyrimidin-2-yl)propane-2-sulfonamide]	56
CCOc1cccc(-c2nnc(NS(=O)(=O)[C@@H](C)[C@H](C)c3ncc(C)cn3)n2-c2c(OC)cccc2OC)n1 [Example 180.0, (2S,3R)-N-(4-(2,6-dimethoxyphenyl)-5-(6-ethoxypyridin-2-yl)-4H-1,2,4-triazol-3-yl)-3-(5-methylpyrimidin-2-yl)butane-2-sulfonamide]	0.068
COc1cccc(-c2nnc(NS(=O)(=O)[C@@H](C)[C@@H](O)C3CC(F)(F)C3)n2-c2c(OC)cccc2OC)n1 (single isomer, unassigned) [Example 720.0]	35
COCCOc1cccc(-c2nnc(NS(=O)(=O)[C@@H](C)[C@H](C)c3ncc(F)cn3)n2-c2c(OC)cccc2OC)n1 [Example 638.0, (2S,3R)-N-(4-(2,6-dimethoxyphenyl)-5-(6-(2-methoxyethoxy)pyridin-2-yl)-4H-1,2,4-triazol-3-yl)-3-(5-fluoropyrimidin-2-yl)butane-2-sulfonamide]	0.65
COC(=O)c1cccc(-n2c(NS(=O)(=O)[C@@H](C)[C@H](OC)c3ncc(C)cn3)nnc2-c2cccc(OC)n2)c1 [Example 54.0, methyl 3-(3-((((1S,2R)-2-methoxy-1-methyl-2-(5-methyl-2-pyrimidinyl)ethyl)sulfonyl)amino)-5-(6-methoxy-2-pyridinyl)-4H-1,2,4-triazol-4-yl)benzoate]	12
COc1cnc([C@@H](OC)[C@H](C)S(=O)(=O)Nc2nnc(-c3cccnc3)n2-c2c(OC)cccc2OC)nc1 [Example 58.0, (1R,2S)-N-(4-(2,6-dimethoxyphenyl)-5-(3-pyridinyl)-4H-1,2,4-triazol-3-yl)-1-methoxy-1-(5-methoxy-2-pyrimidinyl)-2-propanesulfonamide]	0.5

— patent US10058550B2, “Methods of treating heart failure” (priority 2015, dated 2018)
